# Assays:
# Drosophila melanogaster [1] = assay: Residual exposure knockdown bioassay on female fruit flies; format: in vivo; details: for speed of action (lethality) of enantiomers and racemate, in words: fruit flies, different dosages (FIG. 9, FIG. 10)
# [2] = Stability of amorphous forms at room temperature; format: physicochemical
# Description: DFDT and MFDT were synthesized from trichloroacetate and para-fluorobenzaldehyde to give 1-(4-fluorophenyl)-2,2,2-trichloroethanol. Subsequent reaction with fluorobenzene or chlorobenzene afforded DFDT and MFDT, respectively. Two polymorphic crystalline forms of DFDT (DFDT-I, -II) and three polymorphic forms of racemic MFDT ((RS)-MFDT-I, -II, -III) were discovered. DFDT-I single crystals could be obtained from a variety of solvents and DFDT-II single crystals from diethyl ether. (RS)-MFDT-I could be crystallized from a variety of solvents. The (R)- and (S)-MFDT enantiomers were resolved by chromatography on a chiral stationary phase, and single crystals were grown from a variety of solvents. Curiously, single crystals of (RS)-MFDT-II and -III were obtained by crystallization from the melt at >30° C. and 25° C., respectively, using seed crystals of either the R or S isomers. These crystalline forms, six total, were characterized by single crystal X-ray diffraction (FIG. 1). […] The Tm of the enantiomorphs was 47° C. Amorphous DFDT (a-DFDT), prepared by supercooling melts or fine mist spraying of solutions, afforded broad X-ray scattering halos (FIG. 1H) and was stable for 25 days at room temperature. Amorphous resolved and racemic MFDT (a-(R)- and a-(S)-MFDT, and a-(RS)-MFDT, respectively; FIG. 1H) were stable for 10 days at room temperature. These observations contrast with a-DDT, which transformed to crystalline DDT Form I within 5 hours at room temperature.
# [3] = system: Anopheles quadrimaculatus; assay: Knockdown bioassay on female Anopheles mosquitoes in coated petri dishes; format: in vivo; details: for KT50: female Anopheles, 1.0±0.1 mg amorphous form in petri dish; for knockdown speed, times faster than a-DDT: Anopheles and Aedes mosquitoes (FIG. 3F)
# Description: (§1) Each symbol corresponds to one female. Dashed lines indicate logistic regression of knockdown-time curves. The median knockdown time for each curve is denoted by its intersection with the horizontal KT50 marker. FIG. 3F illustrates the relative knockdown speeds of amorphs. Error bars represent 95% confidence intervals (CI). Values with the same letter have overlapping 95% Cls and differences are considered insignificant. Insets: Photos of typical Anopheles and Aedes mosquito females.
# (§2) Female Anopheles and Aedes mosquitoes exposed to 1.0±0.1 mg of various crystalline forms followed the same knockdown trend as Drosophila, see Example 2, with KT50 values decreasing in the order DDT-I>(RS)-MFDT-I>DFDT-I>DFDT-II (FIGS. 3A and 3B). […] Female mosquitoes were introduced into petri dishes coated with 1.0±0.1 mg of the amorphous forms, and their motions recorded (Videos S8-S10). KT50 values for a-DFDT and a-(RS)-MFDT against Anopheles were 29 and 39 minutes, and against Aedes were 30 and 40 minutes, respectively (FIGS. 3C and 3D). Corresponding KT50 values for a-DDT were much larger (120 and 112 minutes). Accordingly, the knockdown speeds for a-DFDT and a-(RS)-MFDT are 4 and 3 times faster than a-DDT, respectively (FIG. 3F).
# Aedes aegypti = assay: Knockdown bioassay on female Aedes mosquitoes in coated petri dishes; format: in vivo; details: 1.0±0.1 mg amorphous form in petri dish
# Description: as §1, §2
# Drosophila melanogaster [4] = assay: Residual exposure knockdown bioassay on female fruit flies; format: in vivo; details: for KT50 against female Drosophila, comparison in words: dosage 1.06*10^−1 g/m^2, FIG. 8; for observed symptoms of exposed flies: fruit flies; for Drosophila knockdown times, comparison in words: Example 5, FIG. 5; for KT50 (median knockdown time): female Drosophila melanogaster, 2.0±0.1 mg, logistic regression of knockdown-time curves
# Description: Each symbol of FIGS. 2A-C corresponds to one female. Dashed lines indicate logistic regression of knockdown-time curves. The median knockdown time for each curve is denoted by its intersection with the horizontal KT50 marker. FIG. 2D illustrates comparison of the knockdown speeds (1/KT50) relative to DDT I. Error bars represent 95% confidence intervals (CI). Values with the same letter have overlapping 95% Cls and differences are considered insignificant. Inset: Photo of a typical female fly.
# Female Drosophila melanogaster were exposed to 2.0±0.1 mg of DFDT, MFDT and DDT separately, in their crystalline and amorphous forms. The insects were monitored with a video camera until the entire population ceased to move. The videos then were analyzed to determine the knockdown times—a proxy for lethality—for each individual insect (Videos S1-S5). […] KT50 values, the times required for death of 50% of the insects, are the standard for assessing insecticide lethality (the lifetimes of individual insects differ because of the random nature of their contact with insecticide surfaces and varied susceptibility of a population). Here, the KT50 values were calculated by logistic regression of knockdown-time curves. […] Knockdown speeds, reciprocals of KT50 values, decreased in inverse order (FIG. 2d). The amorphous forms are always faster than their respective crystalline counterparts, with a-DFDT the fastest. […] Overall, the lethalities of the different solid forms of a given compound, as deduced from their knockdown speeds, were inversely correlated with their thermodynamic stability.
# The relationships between functional groups that are directly attached to the central carbon atom and Drosophila knockdown times are shown in FIG. 6. […] Physical state of the compound at room temperature, and the median knockdown time (KT50) against female Drosophila are denoted below each compound. The dosage for the residual bioassay was 1.06*10^−1 g/m^2.
# Residual action, which refers to the length of time a compound or composition may exist in a particular environment and remain effective, is a good proxy for the insecticidal activity of a compound. Each crystalline form was ground to a particle size similar to that of the liquid particles prepared by fine mist spraying. Lethality measurements were performed in duplicate for each solid-state form, each accompanied by two controls (no insecticide). Each microcrystalline form was added to a 10.0 cm diameter polystyrene petri dish (2.0 mg per dish), which was subsequently shaken to disperse the microcrystals throughout the petri dish. Amorphous forms were prepared by fine mist spraying a stock solution containing 70.0 mg of the respective insecticide in 10.0 mL hexane onto the top and bottom of 10.0 cm diameter polystyrene petri dishes (two sprays=0.280 mL) and allowing the hexane to evaporate at room temperature, resulting in 2.0 mg of liquid insecticide in each petri dish. 25 female adults Drosophila were sedated with carbon dioxide and flies were transferred to each petri dish. The top of the dish was then placed over the bottom and the motion of the mosquitos or fruit flies was recorded with a video camera (Sony HDR-CX455). The knockdown time was measured for each individual, with knockdown associated with an insect laying on the bottom surface of the petri dish in a supine position without moving from its original position after 10 seconds.
# [5] = Acute oral toxicity, Fixed Dose Procedure (OECD Guideline 420); format: in vivo, rats; details: in vivo; rat, acute oral
# Method: (§3) Fixed Dose Procedure (OECD Guideline 420):
# (§4) (RS)-MFTE and (RS)-PFTE were test under OECD, Test No. 420: Acute Oral Toxicity—Fixed Dose Procedure, OECD Guidelines for the Testing of Chemicals, Section 4, OECD Publishing, Paris (2002), which is hereby incorporated by reference in its entirety.
# (§5) Groups of five young adult animals (rats) of one sex in a stepwise procedure using the fixed doses of 5, 50, 300 and 2000 mg/kg in the main study as shown in FIG. 12B. Most tests are likely to be completed with either one or two sighting study steps and one main study step, thus using between 5 and 7 animals. Up to 5 animals are used in a limit test.
# rats = assay: as above; format: in vivo; details: for clinical symptoms: 5 animals; for clinical outcome of the animal in the pilot experiment: single animal
# Method: as §3, §4, §5
structure (smiles),measurement,setting,value
"O[C@H](c1ccc(F)cc1)C(Cl)(Cl)Cl [(R)-MFTE, (R)-1-(4-fluorophenyl)-2,2,2-trichloro-ethanol]","speed of action against deltamethrin Form I, in words",Drosophila melanogaster [1]; dosage above 5.30*10^−3/m^2,even faster in action than deltamethrin Form I
same,"speed of action (lethality) of enantiomers and racemate, in words",Drosophila melanogaster [1],always faster in action than (S)-MFTE
"Clc1ccc(C(c2ccc(Cl)cc2)C(Cl)(Cl)Cl)cc1 [a-DDT, 1,1,1-trichloro-2,2-bis(4-chlorophenyl)ethane]",time to transformation to crystalline DDT Form I,[2]; room temperature,≤ 5 h
same,KT50,[3],120 min
same,KT50,Aedes aegypti,112 min
"O[C@H](c1c(F)c(F)c(F)c(F)c1F)C(Cl)(Cl)Cl [(R)-PFTE, (R)-1-perfluorophenyl-2,2,2-trichloro-ethanol]","speed of action against (RS)-PFTE, in words",Drosophila melanogaster [1]; dosage below 1.06*10^−1/m^2,faster in action than (RS)-PFTE
same,"speed of action (lethality) of enantiomers and racemate, in words",Drosophila melanogaster [1],always faster in action than (S)-PFTE
same,"speed of action against deltamethrin Form I, in words",Drosophila melanogaster [1]; high dosage 1.06*10^−1/m^2 and above,slower in action than deltamethrin Form I
same,"speed of action against deltamethrin, in words",Drosophila melanogaster [1]; low dosage 5.30*10^−3/m^2,faster in action than deltamethrin
"Fc1ccc(C(c2ccc(F)cc2)C(Cl)(Cl)Cl)cc1 [DFDT, reference compound]","KT50 against female Drosophila, comparison in words",Drosophila melanogaster [4],much larger
same,observed symptoms of exposed flies,Drosophila melanogaster [4],"induced hyperactivity followed by paralysis, and then death"
"CC(O)(c1c(F)c(F)c(F)c(F)c1F)C(Cl)(Cl)Cl (stereo not drawn) [PFTP, 2-(perfluorophenyl)-1,1,1-trichloro-propan-2-ol]","KT50 against female Drosophila, comparison in words",Drosophila melanogaster [4],comparable to that of crystalline deltamethrin Form I
"OC(c1c(F)c(F)c(F)c(F)c1F)C(Cl)(Cl)Cl (racemic) [(RS)-PFTE, 1-perfluorophenyl-2,2,2-trichloro-ethanol]","Drosophila knockdown times, comparison in words",Drosophila melanogaster [4],smaller than amorphous DFDT
same,"KT50 against female Drosophila, comparison in words",Drosophila melanogaster [4],comparable to that of crystalline deltamethrin Form I
same,LD50,[5],300 to 2000 mg/kg
same,necropsy findings,rats; 300 mg/kg b.w.,no abnormal findings during necropsy
same,clinical symptoms,rats; 300 mg/kg b.w.,no clinical symptoms except for soft feces
same,necropsy findings,rats; 2000 mg/kg b.w.,changes were seen mainly in the gastrointestinal tract
same,clinical outcome of the animal in the pilot experiment,rats; 2000 mg/kg b.w.,had to be euthanized on day 1 approx. 3 h after application
"Clc1ccc(C(c2ccc(Cl)cc2)C(Cl)(Cl)Cl)cc1 [DDT-I, 1,1,1-trichloro-2,2-bis(4-chlorophenyl)ethane, reference compound]",KT50 (median knockdown time),Drosophila melanogaster [4],261 min
"Clc1ccc(C(c2ccc(Cl)cc2)C(Cl)(Cl)Cl)cc1 [DDT, 1,1,1-trichloro-2,2-bis(4-chlorophenyl)ethane, reference compound]","KT50 against female Drosophila, comparison in words",Drosophila melanogaster [4],much larger
same,observed symptoms of exposed flies,Drosophila melanogaster [4],"induced hyperactivity followed by paralysis, and then death"
"Fc1ccc(C(c2ccc(Cl)cc2)C(Cl)(Cl)Cl)cc1 [a-(R)-MFDT, 1,1,1-trichloro-2,2-(4-chlorophenyl)-(4-fluorophenyl)-ethane]",time the amorphous form was stable,[2]; room temperature,10 days
"Fc1ccc(C(c2ccc(Cl)cc2)C(Cl)(Cl)Cl)cc1 (racemic) [a-(RS)-MFDT, 1,1,1-trichloro-2,2-(4-chlorophenyl)-(4-fluorophenyl)-ethane]",time the amorphous form was stable,[2]; room temperature,10 days
same,"knockdown speed, times faster than a-DDT",[3],3 times
same,KT50,[3],39 min
same,KT50,Aedes aegypti,40 min
"OC(c1ccc(C(F)(F)F)cc1)C(Cl)(Cl)Cl (stereo not drawn) [TFMTE, 1-(4-(trifluoromethyl)phenyl)-2,2,2-trichloro-ethanol]","Drosophila knockdown times, comparison in words",Drosophila melanogaster [4],"faster than DDT Form I, but not as fast as PFTE"
Fc1ccc(C(c2ccc(F)cc2)C(Cl)(Cl)Cl)cc1 [a-DFDT],time the amorphous form is stable,[2]; addition of 10 wt % PEG 100 emulsifier,at least 120 days
same,time the amorphous form was stable,[2]; room temperature,25 days
same,KT50 (median knockdown time),Drosophila melanogaster [4],54 min
same,"knockdown speed, times faster than a-DDT",[3],4 times
same,KT50,[3],29 min
same,KT50,Aedes aegypti,30 min
"Fc1ccc(C(c2ccc(Cl)cc2)C(Cl)(Cl)Cl)cc1 (stereo not drawn) [MFDT, 1,1,1-trichloro-2,2-(4-chlorophenyl)-(4-fluorophenyl)-ethane]",observed symptoms of exposed flies,Drosophila melanogaster [4],"induced hyperactivity followed by paralysis, and then death"
"OC(c1ccc(F)cc1)C(Cl)(Cl)Cl (racemic) [(RS)-MFTE, 1-(4-fluorophenyl)-2,2,2-trichloro-ethanol]","KT50 against female Drosophila, comparison in words",Drosophila melanogaster [4],comparable to that of crystalline deltamethrin Form I
same,LD50,[5],300 to 2000 mg/kg
same,necropsy findings,rats; 300 mg/kg b.w.,no relevant changes were noted except for the spleen
same,clinical symptoms,rats; 300 mg/kg b.w.,only mild symptoms (underactivity)
same,necropsy findings,rats; 2000 mg/kg b.w.,changes were seen mainly in the gastrointestinal tract
same,clinical outcome of the animal in the pilot experiment,rats; 2000 mg/kg b.w.,had to be euthanized 1 day after application
same,"speed of action (lethality) of enantiomers and racemate, in words",Drosophila melanogaster [1],lies in between of (R) and (S)-MFTE
